Test results published in patent US9487474B2, “Imino compounds as protecting agents against ultraviolet radiations” (Elkimia, Inc., priority 2012, dated 2016).

How the values were obtained:
Type in all cases: physicochemical
[1] = UVA/UVB absorption of compound films on glass slides, with and without 20 hours ageing under UV (Xenon instrument); settings: for Tested compound UVA % / Tested compound UVB %: absorption A = (Tslide−Tslide+sample)/Tslide×100; for Plate + tested compound UVA % / Plate + tested compound UVB %: transmission T (%)
Protocol: Compounds IE1, IF1, IA2, IE4, IA1, IE2, ID2 and ID3 were evaluated for their UV absorption properties. Samples were prepared as follows: 20 mg of each of the compounds were dissolved into 1 ml of methanol to yield 20 g/L solutions. The solutions were then applied onto two glass slides each. For each compound, one of the slides was aged for 20 hours under UV (Xenon instrument). Samples were then analyzed using a UVA-UVB spectrophotometer in transmission T (%) mode and compared to the non-aged slides. Absorption (A) was calculated using the following formula: Asample=(Tslide−Tslide+sample)/Tslide×100

[2] = UV spectrum (λmax) of the isolated compound
Description: In other embodiments, the present invention provides methods and techniques for determining the UV-absorbing capacity of the compounds as defined herein. The UV-absorbing properties of the compounds defined herein can be determined by spectrophotometer according to techniques and methods well known in the art. For example, ultraviolet-visible spectroscopy or ultraviolet-visible spectrophotometry (UV-Vis or UV/Vis) may be used to calculate the wavelength of maximal absorption (λmax) of the compound.

[3] = In vitro UV protection performance (SPF in vitro, UVAPF, Critical Wavelength) by the Colipa UVA in vitro Method on PMMA plates; settings: for Critical Wavelength λc value: PMMA plate, after UV exposure, 90% of the absorbance integral 290 to 400 nm, >= 370 nm = broad-spectrum; for protection against UVA rays (UVAPF in vitro), in words: UVAPF in vitro measurements; for UVAPF: thin film 0.75 mg/cm^2 on PMMA plate, after UV irradiation (pre-irradiation 800 J/m^2-eff); for SPF in vitro: thin film 0.75 mg/cm^2 on roughened PMMA plate, absorbance before UV exposure
Protocol: The following compounds were evaluated by an in vitro study for the Sun Protection Factor (SPF) in vitro, the UVA Protection Factor (UVAPF) and the Critical Wavelength value using the Colipa UVA in vitro Method.
For determining the SPF in vitro value, the protection performance of the compounds against erythemally-effective UV radiation, largely confined to the UVB (290-320 nm) and short-wavelength UVA (320-340) region was calculated from the measured in vitro transmittance. The in vitro UVAPF, the UVA protection (320-400 nm) was calculated from the measured in vitro transmittance after irradiation. The Critical Wavelength Value was defined as the wavelength at which the integral of the spectral absorbance curve reached 90% of the integral over the UV spectrum from 290 to 400 nm. It has been settled that this value must be equal or over 370 nm so as to classify the product as broad-spectrum. The study consisted in a comparative assay of non-treated plates against plates treated with each of the compounds and was based on the evaluation of UV-transmittance through a thin film of sunscreen sample spread on a roughened substrate, before an after exposure to a controlled dose of UV radiation from a UV source. A Kontron 933 spectrophotomer equipped with a UV source, an integrating sphere and a monochromatic light able to deliver a flow of energy between 290 and 400 nm was used. The transmittance values were measured at 1 nm intervals. A 10-4 precision laboratory balance was used to control deposited product weight. The irradiation was provided by Sunset Atlas CPS+ with standard filter. Temperature regulation of the equipment was done in the range of 25-35° C. A pre-irradiation dose of 4 times 200 J/m^2-eff (800 J/m^2-eff) was delivered. The substrate was the material to which the sunscreen product was applied. Polymethylmethacrylate (PMMA) plates were used and were roughened on one side to a three-dimensional surface topography of 5 micrometers. Each compound was weighted and applied evenly to the PMMA plate with a 2-phase spreading to achieve a 0.75 mg/cm^2 weight/surface ratio. Spreading was performed with a light spreading move for approximately 30 seconds followed by spreading with greater pressure for approximately 30 seconds. The resulting sample was left to equilibrate for 15 minutes in the dark at room temperature to ensure a self-leveling if the formula. To account for lack of photostability, a pre-irradiation was necessary. The pre-irradiation dose was 4 minimal erythema dose (MEDs), equivalent to 800 J/m^2-eff. Five measurements of spectral irradiance transmitted for each wavelength through the PMMA plate covered with the sunscreen product were obtained after pre-irradiation of the sunscreen product [P1( ), P2( ), P3( ), P4( ) and P5( )]. For each compound, mean absorbance values were determined from at least three individual PMMA plates. To validate the accuracy of the results, a control product with an established SPF of 18-20, Lot 11T0313 was tested simultaneously with the compounds. SPF in vitro was calculated for each plate using the following equation (Colipa 2011):
[formula] Where: • E( )=Erythema action spectrum (CEI-1987) • I( )=Spectral irradiance of the UV source • A0( )=Mean monochromatic absorbance measurements per plate of the test compound layer before UV exposure, at each wavelength • d=Wavelength step (1 nm) Calculation of the UVAPF for Each Plate after UV Irradiation (Colipa 2011)
[formula] Where: • P( )=PPD action spectrum • I( )=Spectral irradiance of the UV source • A( )=Mean monochromatic absorbance measurements per plate of the test compound layer after UV exposure, at each wavelength • C=Coefficient of adjustment • d=Wavelength step (1 nm) Calculation of the Critical Wavelength (FDA 2011)
[formula] Where: • A( )=Mean monochromatic absorbance measurements per plate of the compound layer after UV exposure, at each wavelength • d=Wavelength step (1 nm) […]

[4] = 20 g/L methanol solution on glass slide, no ageing
[5] = ageing for 20 hours under UV (Xenon instrument)

| SMILES | Tested compound UVA % ([1]; ageing for 20 hours under UV) | Tested compound UVB % ([1]; ageing for 20 hours under UV) | Tested compound UVA % ([1]; no ageing) | Tested compound UVB % ([1]; no ageing) | Plate + tested compound UVA % [1, 4] | Plate + tested compound UVB % [1, 4] | Plate + tested compound UVA % [1, 5] | Plate + tested compound UVB % [1, 5] | UV: λmax ([2]; MeOH/water with both 0.1% formic acid) | Critical Wavelength λc value [3] | protection against UVA rays (UVAPF in vitro), in words [3] | UVAPF [3] | SPF in vitro [3] | UV: λmax ([2]; MeOH/water) |
| --- | --- | --- | --- | --- | --- | --- | --- | --- | --- | --- | --- | --- | --- | --- |
| COc1ccc(/N=C2/C=C(NCC(=O)O)CCC2)cc1 [ID3] | 98.6% | 98.6% | 99.5% | 99.3% | 0.47% | 0.33% | 1.28% | 0.62% |  |  |  |  |  |  |
| COc1ccc(/N=C2/C=C(NCC(=O)O)CCC2)cc1 [(E)-2-((3-((4-methoxyphenyl)imino)cyclohex-1-en-1-yl)amino)acetic acid] |  |  |  |  |  |  |  |  | ~318 nm |  |  |  |  |  |
| COc1ccc(/N=C2/C=C(NCC(=O)O)CC(C)(C)C2)cc1 [ID2] | 98.9% | 99.0% | 99.5% | 99.2% | 0.44% | 0.34% | 1.00% | 0.46% |  |  |  |  |  |  |
| COc1ccc(/N=C2\CC(C)(C)CC3=C2SCC(C(=O)O)N3)cc1 (stereo not shown) [IA1] | 95.1% | 98.6% | 98.9% | 95.8% | 0.99% | 1.88% | 4.33% | 0.64% |  | 390 nm | good protection against UVA rays | 8.7 | 2.4 |  |
| CC1(C)CC2=C(SCC(C(=O)O)N2)/C(=N/c2ccccc2)C1 (stereo not shown) [IE2, (E)-6,6-dimethyl-8-(phenylimino)-3,4,5,6,7,8-hexahydro-2H-benzo[b][1,4]thiazine-3-carboxylic acid] | 95.0% | 95.6% | 96.1% | 95.3% | 3.51% | 2.12% | 4.43% | 1.97% |  |  |  |  |  |  |
| CC1(C)CC2=C(SCC(C(=O)O)N2)/C(=N/c2ccc(C(=O)NC(C)(C)C)cc2)C1 (stereo not shown) [IE1] | 98.2% | 97.7% | 98.9% | 98.4% | 1.00% | 0.73% | 1.63% | 1.02% |  | 391 nm | good protection against UVA rays | 13.5 | 3.4 |  |

Now from value to compound:

| Tested compound UVA % ([1]; ageing for 20 hours under UV) | Tested compound UVB % ([1]; ageing for 20 hours under UV) | Tested compound UVA % ([1]; no ageing) | Tested compound UVB % ([1]; no ageing) | Plate + tested compound UVA % [1, 4] | Plate + tested compound UVB % [1, 4] | Plate + tested compound UVA % [1, 5] | Plate + tested compound UVB % [1, 5] | UV: λmax ([2]; MeOH/water with both 0.1% formic acid) | Critical Wavelength λc value [3] | protection against UVA rays (UVAPF in vitro), in words [3] | UVAPF [3] | SPF in vitro [3] | UV: λmax ([2]; MeOH/water) | SMILES |
| --- | --- | --- | --- | --- | --- | --- | --- | --- | --- | --- | --- | --- | --- | --- |
|  |  |  |  |  |  |  |  |  |  |  |  |  | ~345 nm | COc1ccc(/N=C2/C=C(Nc3ccc(OC)cc3)CC(C)(C)C2)cc1 [(E)-N,N′-(5,5-dimethylcyclohex-1-ene-1-yl-3-ylidene)bis(4-methoxyaniline)] |
| 99.6% | 99.1% | 99.7% | 99.3% | 0.24% | 0.31% | 0.37% | 0.39% |  | 390 nm |  | 4.1 | 2.1 |  | COc1ccc(/N=C2\CC(C)(C)CC3=C2SCC(C(=O)O)N3)cc1OC (stereo not shown) [IF1] |
| 98.4% | 98.2% | 99.5% | 99.0% | 0.49% | 0.46% | 1.46% | 0.81% |  | 390 nm | good protection against UVA rays | 8.6 | 4.5 |  | CC1(C)CC2=C(SCC(C(=O)O)N2)/C(=N/c2ccc(F)cc2)C1 (stereo not shown) [IE4] |
